BigSolDB 2.1

O=S(=O)(c1ccccc1)c1ccc(Cl)cc1
solubility (mole fraction)
Settings | 278.15 K | 283.15 K | 288.15 K | 293.15 K | 298.15 K | 303.15 K | 308.15 K | 313.15 K | 318.15 K | 323.15 K
in ethanol | 0.00091 | 0.00105 | 0.00121 | 0.00142 | 0.00166 | 0.00189 | 0.00221 | 0.00261 | 0.00301 | 0.00358
in isopropanol | 0.00198 | 0.00236 | 0.00283 | 0.00338 | 0.00395 | 0.00468 | 0.00547 | 0.00629 | 0.00722 | 0.00838
in methanol | 0.000276 | 0.000332 | 0.000401 | 0.00049 | 0.000572 | 0.000668 | 0.000781 | 0.0009 | 0.00105 | 0.00125
in n-propanol | 0.00351 | 0.00411 | 0.00479 | 0.00555 | 0.00645 | 0.00754 | 0.00885 | 0.0102 | 0.0116 | 0.0137
in water | 2.88e-06 | 3.77e-06 | 4.7e-06 | 5.95e-06 | 7.38e-06 | 9.03e-06 | 1.1e-05 | 1.34e-05 | 1.61e-05 | 1.94e-05
